Measurements reported in the supplement of paper PMC4862054.

Experiments:
BT-549 = conditions: 72 h
Procedure, shortened: (§1)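 Viability of breast cancer cell lines was measured with CellTiter-Blue after 72 h of incubation on compound-loaded 384-well plates. Cells were seeded in 20 µl onto compound dissolved in 5 µl medium, and 2.5 µl reagent was added for 2 h at 37 °C before reading at 560/590 nm. EC50 was fitted from percent-inhibition dose-response data censored at the highest concentration, normalised per plate to vehicle and a positive kill control, with zero drug sensitivity score rows dropped.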

MDA-MB-468 [1] = conditions: 72 h
Procedure, shortened: as §1

SK-BR-3 = conditions: 72 h
Procedure, shortened: as §1

CAL-120 = conditions: 72 h
Procedure, shortened: as §1

Hs578T [2] = conditions: 72 h
Procedure, shortened: as §1

MDA-MB-231 [3] = conditions: 72 h
Procedure, shortened: as §1

MFM-223 = conditions: 72 h
Procedure, shortened: as §1

MDA-MB-436 [4] = conditions: 72 h
Procedure, shortened: as §1

BT-474 [5] = conditions: 72 h
Procedure, shortened: as §1

MDA-MB-453 [6] = assay: normalised viability (% of control), CellTiter-Blue; higher = more viable cells (about 100 = DMSO control); conditions: incubation time: 72 h
Experimental: (§2)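 DSRT, CellTiter-Blue viability, 72 h incubation. Signal is normalised to DMSO and benzethonium chloride controls. Value is the normalised response at dose 9.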

CAL-148 [7] = assay: as above; conditions: incubation time: 72 h
Experimental: as §2

DU-4475 [8] = assay: as above; conditions: incubation time: 72 h
Experimental: as §2

HDQ-P1 [9] = assay: as above; conditions: incubation time: 72 h
Experimental: as §2

CAL-85-1 [10] = assay: as above; conditions: incubation time: 72 h
Experimental: as §2

CAL-51 = assay: as above; conditions: incubation time: 72 h
Experimental: as §2

MDA-MB-453 [11] = assay: normalised response (% of control), CellTiter-Glo; higher = more viable cells (100 = DMSO, 0 = benzethonium chloride kill control); conditions: incubation time: 72 h
Procedure, shortened: (§3)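 For each plate, 0.1 % DMSO was set to 100 and a positive kill control to 0. Breast cancer cell lines (20 µl suspension) were seeded into 384-well plates already holding compound at 5 concentrations in 10-fold steps over a 10,000-fold range chosen per compound, and incubated for 72 h. CellTox Green fluorescence at 485/520 nm was read before CellTiter-Glo luminescence, which followed 10 min at room temperature. Each value is the normalised signal at one concentration.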

HCC1937 [12] = assay: as above; conditions: incubation time: 72 h
Procedure, shortened: as §3

MDA-MB-468 [13] = assay: as above; conditions: incubation time: 72 h
Procedure, shortened: as §3

CAL-148 [14] = assay: as above; conditions: incubation time: 72 h
Procedure, shortened: as §3

DU-4475 [15] = assay: as above; conditions: incubation time: 72 h
Procedure, shortened: as §3

Hs578T [16] = assay: as above; conditions: incubation time: 72 h
Procedure, shortened: as §3

MDA-MB-231 [17] = assay: as above; conditions: incubation time: 72 h
Procedure, shortened: as §3

HDQ-P1 [18] = assay: as above; conditions: incubation time: 72 h
Procedure, shortened: as §3

CAL-85-1 [19] = assay: as above; conditions: incubation time: 72 h
Procedure, shortened: as §3

MDA-MB-436 [20] = assay: as above; conditions: incubation time: 72 h
Procedure, shortened: as §3

BT-474 [21] = assay: as above; conditions: incubation time: 72 h
Procedure, shortened: as §3

HCC1937 [22] = conditions: 72 h
Procedure, shortened: as §1

Row | SMILES | EC50, CellTiter-Blue viability (BT-549) | EC50, CellTiter-Blue viability (MDA-MB-468 [1]) | EC50, CellTiter-Blue viability (SK-BR-3) | EC50, CellTiter-Blue viability (CAL-120) | EC50, CellTiter-Blue viability (Hs578T [2]) | EC50, CellTiter-Blue viability (MDA-MB-231 [3]) | EC50, CellTiter-Blue viability (MFM-223) | EC50, CellTiter-Blue viability (MDA-MB-436 [4]) | EC50, CellTiter-Blue viability (BT-474 [5]) | normalised viability (MDA-MB-453 [6]) | normalised viability (CAL-148 [7]) | normalised viability (DU-4475 [8]) | normalised viability (HDQ-P1 [9]) | normalised viability (CAL-85-1 [10]) | normalised viability (CAL-51) | normalised response (MDA-MB-453 [11]) | normalised response (HCC1937 [12]) | normalised response (MDA-MB-468 [13]) | normalised response (CAL-148 [14]) | normalised response (DU-4475 [15]) | normalised response (Hs578T [16]) | normalised response (MDA-MB-231 [17]) | normalised response (HDQ-P1 [18]) | normalised response (CAL-85-1 [19]) | normalised response (MDA-MB-436 [20]) | normalised response (BT-474 [21]) | EC50, CellTiter-Blue viability (HCC1937 [22])
1 | COc1cc2/c(=N/c3ccc(Br)cc3F)nc[nH]c2cc1OCC1CCN(C)CC1 [Vandetanib] | 3750 nM | 3330 nM | 4330 nM | 5260 nM | 2060 nM | 2480 nM | 926 nM | 138 nM | 2290 nM | – | – | – | – | – | – | – | – | – | – | – | – | – | – | – | – | – | –
2 | Oc1ccc2c(c1)CC[C@H](c1ccccc1)[C@@H]2c1ccc(OCCN2CCCC2)cc1 [Lasofoxifene] (1000 nM) | – | – | – | – | – | – | – | – | – | 107% | 107% | 97.8% | 125% | 81.8% | 90% | 88.7% | 99.3% | 99.7% | 122% | 96.2% | 107% | 102% | 94.1% | 100% | 110% | 103% | –
3 | CC(C)C[C@@H](C(=O)N[C@H](C(=O)OC1CCCC1)c1ccccc1)[C@H](O)C(=O)NO [Tosedostat] | 273 nM | 35.9 nM | – | 16.7 nM | 2140 nM | 92.4 nM | 2230 nM | 2740 nM | – | – | – | – | – | – | – | – | – | – | – | – | – | – | – | – | – | – | 121 nM
4 | COc1cc(OC2CCN(C)CC2)ccc1Nc1ncc2c(n1)n(C1CCCC1)c(=O)n2C [AZ 3146] | – | – | 1050 nM | > 10000 nM | – | 8030 nM | – | – | – | – | – | – | – | – | – | – | – | – | – | – | – | – | – | – | – | – | –
5 | O=C(Nc1ccncc1)C(=O)c1cn(Cc2ccc(Cl)cc2)c2ccccc12 [Indibulin] (10000 nM) | – | – | – | – | – | – | – | – | – | 36% | 43.7% | 21.4% | 55.2% | 38.9% | 24.4% | 66.9% | 69% | 37% | 103% | 79% | 51.4% | 53.8% | 72% | 43% | 44.7% | 73.5% | –
6 | COc1cc2ncnc(Nc3ccc(F)c(Cl)c3)c2cc1OCCCN1CCOCC1 [Gefitinib] | – | 808 nM | 1580 nM | > 10000 nM | 1060 nM | > 10000 nM | – | – | 1000 nM | – | – | – | – | – | – | – | – | – | – | – | – | – | – | – | – | – | –
7 | COCC[n+]1c2c(n(Cc3cnccn3)c1C)C(=O)c1ccccc1C2=O [YM155] (10000 nM) | – | – | – | – | – | – | – | – | – | 2% | 2.13% | 0.83% | 0.66% | 2.71% | 1.83% | -0.58% | 0.28% | -0.19% | -0.38% | -0.36% | -0.62% | -0.19% | 1.64% | -0.28% | -0.62% | 1.71% | –
8 | Cc1[nH]c2ccccc2c1CCNCc1ccc(/C=C/C(=O)NO)cc1 [Panobinostat] (1000 nM) | – | – | – | – | – | – | – | – | – | 1.09% | 0.37% | 4.66% | 15% | 4.25% | 1.29% | 2.01% | 20.7% | 7.12% | 0.3% | 13.9% | 5.17% | 6.11% | 26.4% | 3.87% | 30.2% | 7.51% | –
9 | Cc1ccc(NC(=O)c2ccc(CN3CCN(C)CC3)cc2)cc1Nc1nc(-c2cccnc2)cs1 [Masitinib] | – | – | 6500 nM | – | – | – | – | > 10000 nM | – | – | – | – | – | – | – | – | – | – | – | – | – | – | – | – | – | – | –
10 | COCC1(CO)C(=O)C2CCN1CC2 (centres undefined) [Prima-1 Met] | – | – | – | – | > 10000 nM | – | – | – | 4530 nM | – | – | – | – | – | – | – | – | – | – | – | – | – | – | – | – | – | 476 nM
11 | O=P1(N(CCCl)CCCl)NCCCO1 (centres undefined) [Cyclophosphamide] | – | – | – | – | – | – | – | > 40000 nM | – | – | – | – | – | – | – | – | – | – | – | – | – | – | – | – | – | – | –
12 | COCC1(CO)C(=O)C2CCN1CC2 (centres undefined) [Prima-1 Met] (10000 nM) | – | – | – | – | – | – | – | – | – | 89.4% | 80.7% | 125% | 103% | 98.3% | 99.7% | 93.1% | 101% | 91.3% | 110% | 106% | 97.4% | 97.6% | 96.7% | 102% | 97.7% | 97.1% | –
13 | COC(=O)c1ccc2c(c1)NC(=O)/C2=C(\Nc1ccc(N(C)C(=O)CN2CCN(C)CC2)cc1)c1ccccc1 [BIBF 1120] | 5430 nM | 5610 nM | 7750 nM | 3640 nM | 7050 nM | 4160 nM | 555 nM | 9110 nM | 1850 nM | – | – | – | – | – | – | – | – | – | – | – | – | – | – | – | – | – | –
14 | O=C(/C=C/c1cccc(S(=O)(=O)Nc2ccccc2)c1)NO [Belinostat] (10000 nM) | – | – | – | – | – | – | – | – | – | 1.48% | 0.35% | 4.25% | 23% | 7.19% | 3.47% | 2.73% | 20.5% | 8.88% | -0.03% | 5.73% | 7.71% | 2.16% | 30.4% | 6.45% | 29.3% | 5.7% | –
15 | NC(=O)c1ccc(I)c([N+](=O)[O-])c1 [Iniparib] | – | – | – | 3290 nM | – | – | – | – | – | – | – | – | – | – | – | – | – | – | – | – | – | – | – | – | – | – | –
